US20120077677A1, “Use of 4-phenylbutyric acid and/or salts thereof for enhancing stress tolerance in plants” (BAYER CROPSCIENCE AG, priority 2010, published 2012)

Tests used:
BRSNS (Brassica napus) = test: Drought stress test on potted crop plants, spray application, Brassica napus; type: in vivo
Procedure: Seeds of monocotyledonous and dicotyledonous crop plants are placed in sandy loam in wood-fiber pots, covered with soil and cultivated in a greenhouse under good growth conditions. The test plants were treated at the early leaf stage (BBCH10-BBCH13). To ensure uniform water supply before commencement of stress, the potted plants were supplied with the maximum amount of water immediately beforehand by dam irrigation and, after application, transferred in plastic inserts in order to prevent subsequent, excessively rapid drying. The inventive compounds, formulated in the form of wettable powders (WP), wettable granules (WG), suspension concentrates (SC) or emulsion concentrates (EC), were sprayed onto the green parts of the plants as an aqueous suspension at an equivalent water application rate of 600 l/ha with addition of 0.2% wetting agent (agrotin). Substance application was followed immediately by stress treatment of the plants (cold or drought stress). For cold stress treatment, the plants were kept under the following controlled conditions: • “day”: 12 hours with illumination at 8° C. • “night”: 12 hours without illumination at 1° C. Drought stress was induced by gradual drying out under the following conditions: • “day”: 14 hours with illumination at 26° C. • “night”: 10 hours without illumination at 18° C. The duration of the respective stress phases was guided mainly by the state of the untreated, stressed control plants and thus varied from crop to crop. It was ended (by re-irrigating or transfer to a greenhouse with good growth conditions) as soon as irreversible damage was observed on the untreated, stressed control plants. In the case of dicotyledonous crops, for example oilseed rape and soybeans, the duration of the drought stress phase varied between 3 and 5 days, in the case of monocotyledonous crops, for example wheat, barley or corn, between 6 and 10 days. The duration of the cold stress phase varied between 12 and 14 days. […] The intensity of damage was first assessed as a percentage (100%=plants have died, 0%=like control plants). […]

ZEAMX (Zea mays) = test: Drought stress test on potted crop plants, spray application, Zea mays; type: in vivo; conditions: dosage 250 g/ha
Procedure: (§1) Seeds of monocotyledonous and dicotyledonous crop plants are placed in sandy loam in wood-fiber pots, covered with soil and cultivated in a greenhouse under good growth conditions. The test plants were treated at the early leaf stage (BBCH10-BBCH13). To ensure uniform water supply before commencement of stress, the potted plants were supplied with the maximum amount of water immediately beforehand by dam irrigation and, after application, transferred in plastic inserts in order to prevent subsequent, excessively rapid drying. The inventive compounds, formulated in the form of wettable powders (WP), wettable granules (WG), suspension concentrates (SC) or emulsion concentrates (EC), were sprayed onto the green parts of the plants as an aqueous suspension at an equivalent water application rate of 600 l/ha with addition of 0.2% wetting agent (agrotin). Substance application was followed immediately by stress treatment of the plants (cold or drought stress). For cold stress treatment, the plants were kept under the following controlled conditions: • “day”: 12 hours with illumination at 8° C. • “night”: 12 hours without illumination at 1° C. […] The intensity of damage was first assessed as a percentage (100%=plants have died, 0%=like control plants). […]

cotton = conditions: cited from earlier work
[1] = system: TRZAS (Triticum aestivum); test: Drought stress test on potted crop plants, spray application, Triticum aestivum; type: in vivo; conditions: dosage 25 g/ha
Procedure: as §1

SMILES | EF (BRSNS), efficacy = percentage reduction in the intensity of damage (BRSNS (Brassica napus); dosage 25 g/ha) | EF (ZEAMX), efficacy = percentage reduction in the intensity of damage (ZEAMX (Zea mays)) | EF (BRSNS), efficacy = percentage reduction in the intensity of damage (BRSNS (Brassica napus); dosage 250 g/ha) | plant growth (cotton; application to cottonseeds, hence oil content of the harvested material) | translocation of mono- and disaccharides (cotton; cotton, seed dressing) | protein content of the leaves (cotton; cottonseed dressing, early growth stages, also enhances the yields) | flower formation and the maturing of cotton plants (cotton; cottonseed dressing, hence enhances the yields) | EF (TRZAS), efficacy = percentage reduction in the intensity of damage [1]
O=C(O)CCCc1ccccc1 [4-phenylbutyric acid] | >5% | >5% |  |  |  |  |  | 
O=C([O-])CCCc1ccccc1.[Na+] [Compound I-2, Sodium 4-phenylbutyrate] |  |  | >5% | increases | positively influenced | increases | enhances | 
O=C(O)CCCc1ccccc1.OCCN(CCO)CCO [Compound I-22, Tris-N,N,N-(2-hydroxy-1-yl)ammonium 4-phenylbutyrate] | >5% |  |  |  |  |  |  | >5%
